In ChEMBL document CHEMBL3813649, “The influence of halogen substituents on the biological properties of sulfur-containing flavonoids” (2016):
Values after ≈ are worked out from the molar mass of the structure shown.

How the values were obtained:
Format in all cases: functional
Escherichia coli [1] = assay: Antibacterial activity against Escherichia coli ATCC 25922 after 18 hrs by microbroth dilution assay
Staphylococcus aureus [2] = assay: Antibacterial activity against Staphylococcus aureus ATCC 25923 after 18 hrs by microbroth dilution assay
Staphylococcus aureus [3] = assay: Bactericidal activity against Staphylococcus aureus ATCC 25923 after 18 hrs by microbroth dilution assay; conditions: ATCC 25923, 18 h
Escherichia coli [4] = assay: Bactericidal activity against Escherichia coli ATCC 25922 after 18 hrs by microbroth dilution assay; conditions: ATCC 25922, 18 h
[5] = Escherichia coli, ATCC 25922, 18 h, read-out: MIC
[6] = Staphylococcus aureus, ATCC 25923, 18 h, read-out: MIC

Row | SMILES | MIC (Escherichia coli [1]; [5]) [µg/mL] | MIC (Staphylococcus aureus [2]; [6]) [µg/mL] | MBC (Staphylococcus aureus [3]) [µg/mL] | MBC (Escherichia coli [4]) [µg/mL] | MIC (Escherichia coli [1]) [uL/ml] | MIC (Staphylococcus aureus [2]) [uL/ml]
1 | CCN(CC)[c+]1sc2c(s1)C(c1ccccc1)Oc1ccc(F)cc1-2.F[B-](F)(F)F (stereo not drawn) | 62.5 | 7.81 | 15.6 | 125 |  | 
2 | CCN(CC)[c+]1sc2c(s1)C(c1ccc(Cl)cc1)Oc1ccccc1-2.F[B-](F)(F)F (stereo not drawn) | 125 | 3.9 | 7.81 | 125 |  | 
3 | CC1(C)S[C@@H]2[C@H](NC(=O)[C@H](N)c3ccccc3)C(=O)N2[C@H]1C(=O)O [AMPICILLIN] | 7.81 (≈ 22.4 µM) | 7.81 (≈ 22.4 µM) |  |  |  | 
4 | CCN(CC)[c+]1sc2c(s1)C(c1ccc(I)cc1)Oc1ccc(F)cc1-2.F[B-](F)(F)F (stereo not drawn) | 3.9 | 1.95 | 0.97 | 7.81 |  | 
5 | CCN(CC)[c+]1sc2c(s1)C(c1ccc(F)cc1)Oc1ccc(F)cc1-2.F[B-](F)(F)F (stereo not drawn) | 15.6 | 7.81 | 3.9 | 125 |  | 
6 | C[S+](C)[O-] [DIMETHYL SULFOXIDE] |  |  |  |  | 125 | 250
7 | CCN(CC)[c+]1sc2c(s1)C(c1ccc(Br)cc1)Oc1ccc(F)cc1-2.F[B-](F)(F)F (stereo not drawn) | 7.81 | 1.95 | 7.81 | 15.6 |  | 
8 | CCN(CC)[c+]1sc2c(s1)C(c1ccc(Cl)cc1)Oc1ccc(F)cc1-2.F[B-](F)(F)F (stereo not drawn) | 15.6 | 3.9 | 7.81 | 15.6 |  | 
9 | CCN(CC)[c+]1sc2c(s1)C(c1ccccc1)Oc1ccccc1-2.F[B-](F)(F)F (stereo not drawn) | 62.5 | 62.5 | 250 | 250 |  | 
10 | CCN(CC)[c+]1sc2c(s1)C(c1ccccc1)Oc1ccc(Cl)cc1-2.F[B-](F)(F)F (stereo not drawn) | 62.5 | 3.9 | 3.9 | 125 |  | 
11 | CCN(CC)[c+]1sc2c(s1)C(c1ccc(Br)cc1)Oc1ccc(Cl)cc1-2.F[B-](F)(F)F (stereo not drawn) | 3.9 | 0.24 | 3.9 | 1.95 |  | 
12 | NC[C@H]1O[C@H](O[C@H]2[C@H](O)[C@@H](O[C@H]3O[C@H](CO)[C@@H](O)[C@H](N)[C@H]3O)[C@H](N)C[C@@H]2N)[C@H](O)[C@@H](O)[C@@H]1O [KANAMYCIN] | 7.81 (≈ 16.1 µM) | 1.95 (≈ 4.02 µM) | 1.95 (≈ 4.02 µM) | 7.81 (≈ 16.1 µM) |  | 
13 | CCN(CC)[c+]1sc2c(s1)C(c1ccc(I)cc1)Oc1ccc(Cl)cc1-2.F[B-](F)(F)F (stereo not drawn) | 1.95 | 0.24 | 0.48 | 0.97 |  | 
14 | CCN(CC)[c+]1sc2c(s1)C(c1ccc(Br)cc1)Oc1ccccc1-2.F[B-](F)(F)F (stereo not drawn) | 62.5 | 1.95 | 1.95 | 125 |  | 
15 | CCN(CC)[c+]1sc2c(s1)C(c1ccc(F)cc1)Oc1ccc(Cl)cc1-2.F[B-](F)(F)F (stereo not drawn) | 15.6 | 1.95 | 3.9 | 15.6 |  | 
16 | CCN(CC)[c+]1sc2c(s1)C(c1ccc(F)cc1)Oc1ccccc1-2.F[B-](F)(F)F (stereo not drawn) | 125 | 7.81 | 7.81 | 125 |  | 
17 | CCN(CC)[c+]1sc2c(s1)C(c1ccc(Cl)cc1)Oc1ccc(Cl)cc1-2.F[B-](F)(F)F (stereo not drawn) | 3.9 | 0.24 | 0.48 | 3.9 |  | 
18 | CCN(CC)[c+]1sc2c(s1)C(c1ccc(I)cc1)Oc1ccccc1-2.F[B-](F)(F)F (stereo not drawn) | 31.2 | 0.97 | 1.95 | 62.5 |  | 
